# Data taken from patent US20030082249A1, “Compositions containing capsaicin and its derivatives, and their use in treating mucositis” (Ovation Pharmaceuticals, priority 2001, published 2003).
# How the values were obtained:
# [1] = Use of capsaicin to induce salivation: application to oral mucosa of a human subject, saliva collected for 15 minutes; format: in vivo
# Method: A subject was used as a test subject to determine whether application of capsaicin to oral mucosa causes salivation. Approximately 0.25 inches of capsaicin (0.025% generic capsaicin cream) was applied to the oral mucosa. […] Saliva was collected for a period of about 15 minutes in a paper cup. The amount was compared to the amount of saliva collected for a period of 15 minutes before applying capsaicin to the oral mucosa. […] The increased salivation continued for approximately an hour. In preferred embodiments of the present invention, capsaicin or capsaicinoid is combined with one or more of the following: antihistamines such as Benadryl®, or other antihistamines, antibacterials, antifungals, antivirals, and/or antipruritis medications, such as those described above.
# [2] = cited from earlier work
# substance P = settings: comparison with capsaicin; prevents pain sensation without compromising touch or motor coordination; cited from earlier work
smiles,measurement,setting,value
COc1cc(CNC(=O)CCCC/C=C/C(C)C)ccc1O [capsaicin],duration of increased salivation,"[1]; one subject, 0.025% capsaicin cream on oral mucosa",approximately an hour
same,increase in salivation relative to baseline level of salivation,"[1]; one subject, about 0.25 inches of 0.025% capsaicin cream on oral mucosa, saliva collected about 15 minutes vs 15 minutes before application, estimated",about two to three times the baseline level
same,sensation reported by the subject after application,"[1]; within a few minutes of application, increased in intensity for about twenty minutes",warm feeling in the mouth
CC[C@@H]1C(=O)OC[C@@H]1Cc1cncn1C [pilocarpine],stimulation of salivary glands,[2]; patients experiencing xerostomia due to radiotherapy,effective in stimulating salivary glands
same,side effects of treatment,[2]; pilocarpine treatment,"often associated with side effects involving heart, blood pressure, digestion and profuse sweating"
"COc1cc(CNC(=O)CCCC/C=C\C(C)C)ccc1O [Civamide, cis-capsaicin]",depletion of substance P compared with capsaicin,substance P,more effective than capsaicin in depleting substance P
